{
  "source": "patent US9617343B2",
  "about": "“Methods and compositions for treating lupus” (GENZYME CORPORATION, priority 2009, dated 2017)",
  "assay_type_in_all_cases": "in vivo, mouse",
  "key": {"NZB/NZWF1 mice [1]": {"system": "NZB/NZWF1 mice", "assay": "Levels of proteinuria (colorimetric total urine protein assay)", "settings": "by the end of the study (43 weeks), antibodies two i.p. injections ~3 mg/kg, cyclophosphamide 50 mg/kg weekly"}, "NZB/NZWF1 mice [2]": {"system": "NZB/NZWF1 mice", "assay": "Titers of serum IgG antibodies to dsDNA by ELISA", "settings": "antibody two i.p. injections ~3 mg/kg, cyclophosphamide 50 mg/kg weekly"}, "NZB/NZWF1 mice [3]": {"system": "NZB/NZWF1 mice", "settings": "antibodies two doses ~3 mg/kg i.p., cyclophosphamide 50 mg/kg weekly injections, to 43 weeks of age"}, "NZB/NZWF1 mice [4]": {"system": "NZB/NZWF1 mice", "assay": "Histological examination of kidneys", "settings": "trend, not statistically significant"}, "NZB/NZWF1 mice [5]": {"system": "NZB/NZWF1 mice", "assay": "Kidney section staining for CD4+, CD8+ and FoxP3+ cells", "settings": "kidney sections of NZB/NZWF1 mice scored blindly on a scale of 0-4"}},
  "data": [
    {"smiles": "O=P1(N(CCCl)CCCl)NCCCO1", "note": "(centres unmarked) [cyclophosphamide, Cyclophosphamide]", "values": [
      {"measurement": "mice that reached severe proteinuria (>500 mg/dL/day)", "setting": "NZB/NZWF1 mice [1]", "value": 20, "unit": "%"},
      {"measurement": "effect on development of autoantibodies against dsDNA (serum IgG titers)", "setting": "NZB/NZWF1 mice [2]", "value": "effectively reduced"},
      {"measurement": "survival", "setting": "NZB/NZWF1 mice [3]", "value": 80, "unit": "%"},
      {"measurement": "median glomerulopathy scores", "setting": "NZB/NZWF1 mice [4]; compared to rat IgG and vehicle control groups", "value": "reduced"},
      {"measurement": "interstitial inflammation", "setting": "NZB/NZWF1 mice [4]", "value": "Reduced"},
      {"measurement": "CD4+ cells infiltrating the kidneys", "setting": "NZB/NZWF1 mice [5]", "value": "significant decrease"},
      {"measurement": "CD8+ cells infiltrating the kidneys", "setting": "NZB/NZWF1 mice [5]", "value": "significant decrease"},
      {"measurement": "FoxP3+ cells infiltrating the kidneys", "setting": "NZB/NZWF1 mice [5]", "value": "significant decrease"}
    ]}
  ]
}
